Laboratory results reported in patent US8481551B2, “Gyrase and topoisomerase IV inhibitors” (Vertex Pharmaceuticals Incorporated, priority 2011, dated 2013).
Structures can show the parent of a compound that is named as a salt. Where two headings read alike, the source gives them in different places.

Key:
[1] = tested on: Klebsiella pneumoniae; experiment: Gyrase MIC against Gram negatives, microdilution broth method (Protocol 2); format: cell-based
[2] = tested on: Bacteroides and Parabacter spp.; experiment: Gyrase MIC, agar dilution method (Protocol 3); format: cell-based; conditions: 26 isolates tested
[3] = tested on: Enterococcus faecium; experiment: Gyrase MIC, microdilution broth method (Protocol 1)
[4] = Seven-day oral (gavage) toxicity and toxicokinetics study in rats; format: in vivo, Crl:CD(SD) rats
Excerpt: Crl:CD(SD) rats were obtained from Charles River Laboratories of Stone Ridge, N.Y. The animals were laboratory bred and experimentally naïve. Rats were chosen because they are a species that is commonly used for nonclinical toxicity evaluations.
Forty rats (20 noncannulated males and 20 males with jugular vein cannulas) were ordered. From these animals, 15 noncannulated males and 15 cannulated males were used. Animals were as uniform in age as possible. The rats were prepubertal to young adult, approximately 9 weeks of age at initiation of dosing. Their supplier-calculated birth date was retained in the study records. The weight range for the animals at the time of allocation to groups was 218.5-306.3 g.
Animals received the test article or vehicle by oral gavage for 7 consecutive days and were terminated the day following completion of dosing. The first day of dosing was designated as Day 1 of the study. The animals were evaluated for changes in clinical signs, body weight, and other parameters as described below.
The vehicle and test article were administered by oral gavage once daily for 7 consecutive days at a dose volume of 10 mL/kg body weight for Group A and Groups B-D, respectively. The test article and vehicle were administered by oral gavage twice daily, approximately 8 hours apart, for 7 consecutive days at a dose volume of 10 mL/kg body weight for Group E and Group F, respectively. The actual volume administered to each animal was calculated and adjusted based on the most recent body weight of each animal.
The postdosing observations made during treatment occurred at the following times based on Cmax/Tmax for the two compounds from previous studies:
Prior to start of dosing, body weights were measured for randomization on Day 1. During the treatment, body weights were measured on Day 1 and Day 7. In addition, fasted body weights were measured prior to necropsy for calculation of organ/body weight ratios.
Throughout the study, food consumption was measured daily starting 3 days prior to start of dosing.
Blood samples for evaluation of hematology, coagulation, and serum chemistry parameters were collected from all animals from the retro-orbital plexus (under CO2/O2 anesthesia, for the main study animals) or jugular vein cannula (for the toxicokinetic animals) prior to necropsy. Due to residual heparin used to keep the cannulas patent for the toxicokinetic animals, coagulation samples from these rats, were not able to be analyzed. The animals were fasted overnight prior to blood collection. On the day of blood collection for clinical pathology analyses, the animals were not necropsied until after the blood was collected and the samples judged to be acceptable by the clinical pathology group.
An appropriate amount of blood was collected in EDTA-containing tubes. The whole blood samples were analyzed for the parameters indicated below in Table 11.
An appropriate amount of blood was collected in tubes containing sodium citrate and then centrifuged to obtain plasma for the determination of prothrombin time (PT) and activated partial thromboplastin time (APTT).
An appropriate amount of blood was collected in tubes without anticoagulant. The sample was allowed to clot and then was centrifuged to obtain serum. The serum was analyzed for the parameters indicated below in Table 12.
On the 1st and 7th day of dosing, blood samples (approximately 0.5 mL/sample) were collected from the jugular vein cannula for all toxicokinetic animals at the timepoints listed below into K3EDTA-containing tubes. […] Prior to each collection, a small sample of blood (with heparin blocking solution) was removed from the cannula and discarded. A new syringe was placed on the cannula, and the protocol-required sample was taken. The syringe with the blood sample was removed, and a new syringe with saline attached to the cannula. Blood volume was replaced with an equal volume of saline and then blocking solution placed in the cannula. […]

[5] = tested on: Staphylococcus aureus; experiment: microbe, parasite or virus in culture; format: cell-based
[6] = tested on: Clostridium perfringens; experiment: microbe, parasite or virus in culture; format: cell-based
[7] = tested on: Staphlococcus epidermidis; experiment: Gyrase MIC, microdilution broth method (Protocol 1); format: cell-based, Staphylococcus epidermidis; conditions: 35 isolates tested
[8] = tested on: Clostridium difficile; experiment: Gyrase MIC, agar dilution method (Protocol 3); format: cell-based
[9] = tested on: Prevotella spp.; experiment: Gyrase MIC, agar dilution method (Protocol 3); format: cell-based; conditions: 13 isolates tested
[10] = tested on: Bacillus cereus; experiment: Gyrase MIC, microdilution broth method (Protocol 1); format: cell-based
[11] = tested on: Enterococcus faecalis; experiment: as above
[12] = tested on: Fusobacterium spp.; experiment: Gyrase MIC, agar dilution method (Protocol 3); format: cell-based; conditions: 16 isolates tested
[13] = tested on: Peptostreptococcus spp.; experiment: Gyrase MIC, agar dilution method (Protocol 3); format: cell-based; conditions: 11 isolates tested
[14] = male, Crl:CD(SD), rat, in vivo, po, 7 days

## CCNC(=O)Nc1nc2cc(-c3cnc(C(C)(C)O)nc3)cc([C@H]3CCCO3)c2[nH]1 [Compound 13, methanesulfonic acid salt of 1-ethyl-3-[5-[2-(1-hydroxy-1-methyl-ethyl)pyrimidin-5-yl]-7-[(2R)-tetrahydrofuran-2-yl]-1H-benzimidazol-2-yl]urea]
[1]; ATCC700603, Klebsiella pneumoniae ATCC 700603
  MIC: > 16 µg/mL
[1]; ATCCBAA1705, Klebsiella pneumoniae ATCC BAA-1705
  MIC: > 16 µg/mL
[1]; Klebsiella pneumoniae, 12 isolates tested
  MIC90: > 8 µg/mL
[2]
  MIC90: > 16 µg/mL
[3]
  MIC90: 0.5 µg/mL
[3]; 33 isolates tested, Protocol 1
  MIC Range: 0.12 to 0.5 µg/mL
[3]; ATCC49624, Enterococcus faecium ATCC 49624, Protocol 1
  MIC: 0.25 µg/mL
[3]; ATCC49624, Enterococcus faecium ATCC 49624 with Laked Horse Blood, Protocol 1
  MIC: 0.39 µg/mL
[4]; Compound 13 once daily 100 or 200 mg/kg, Compound 23A twice daily 300 mg/kg, not considered adverse
  Mean food consumption: reduced during different intervals of the study
[4]; Crl:CD(SD), rat, in vivo, male rats, 200 mg/kg once a day for 7 days, oral gavage
  AUC at 7 day: 844 µg·h/mL
[4]; male rats, 7 days oral gavage
  adverse observations / mean body weight: No adverse observations or effects on mean body weight
[4]; male rats, any dose regimen
  histopathological findings: No test article-related histopathological findings
[4]; male rats, toxicokinetics
  exposures for different dosage levels: dose related
[4]; [14]
  NOEL (No-Observable-Effect-Level): 200 mg/kg
  dose levels without adverse toxicity: up to 200 mg/kg/day
[5]; 67 isolates tested, Protocol 1
  MIC90: 0.25 µg/mL
  MIC Range: 0.03 to 0.5 µg/mL
[5]; ATCC29213, Staphylococcus aureus ATCC 29213, Protocol 1, read-out: MIC
  MIC: 0.13 µg/mL
[5]; ATCC29213, Staphylococcus aureus ATCC 29213 GyrB T173I, Protocol 1
  MIC: 1.29 µg/mL
[5]; ATCC29213, Staphylococcus aureus ATCC 29213 with Human Serum, Protocol 1, read-out: MIC
  MIC: 0.31 µg/mL
[5]; ATCC29213, Staphylococcus aureus ATCC 29213 with Mouse Serum, Protocol 1, read-out: MIC
  MIC: 2 µg/mL
[5]; ATCC29213, Staphylococcus aureus ATCC 29213 with Rat Serum, Protocol 1, read-out: MIC
  MIC: 0.53 µg/mL
[6]
  MIC90: 0.5 µg/mL
[7]
  MIC Range: 0.03 to 0.25 µg/mL
[7]; Staphylococcus epidermidis
  MIC90: 0.12 µg/mL
[8]; Clostridioides difficile, ATCCBAA1382, Clostridium difficile ATCC BAA-1382
  MIC: 1 µg/mL
[8]; Clostridioides difficile, Clostridium difficile, 16 isolates tested
  MIC90: 1 µg/mL
[8]; Clostridium difficile, 16 isolates tested
  MIC Range: 0.5 to 16 µg/mL
[9]
  MIC90: > 16 µg/mL
[10]; ATCC10987, Bacillus cereus ATCC 10987
  MIC: 0.5 µg/mL
[10]; ATCC14579, Bacillus cereus ATCC 14579
  MIC: 0.5 µg/mL
[11]
  MIC90: 0.25 µg/mL
[11]; 34 isolates tested, Protocol 1
  MIC Range: 0.03 to 0.25 µg/mL
[11]; ATCC29212
  MIC: 0.081 µg/mL
[12]
  MIC90: 2 µg/mL
  MIC Range: 1 to 4 µg/mL
[13]
  MIC90: > 16 µg/mL
